One may read the Kd as the constant that tells how readily two partners part at equilibrium.

Here are results for five molecules from article PMC7060200, “Selective Binding of HSC70 and its Co-Chaperones to Structural Hotspots on CFTR” (Scientific Reports, 2020).

Assay [1] deals with T1, HSC70 (Homo sapiens, UniProt P11142).
T1 construct: made in house
The experiment in a line: ELISA binding of HSC70 to immobilized CFTR NBD1 and competition by soluble peptides. The following applies: 1 μM HSC70, with ATP, soluble peptide, Fig. 4a; n = 5. The procedure: (§1) HSC70, DJA1 and DJA2 were purified as His-tagged proteins, as described. HSC70 was also amplified by PCR with an N-terminal FLAG tag, inserted into pPROEXHTa (Invitrogen) and purified as described. HSC70 was stored in 100 mM KOAc, 20 mM HEPES-KOH pH 7.5, 5 mM MgOAC2 (buffer G), DJA1 and DJA2 in 500 mM NaCl, 20 mM HEPES-KOH pH 7.5, 5 mM MgOAC2 (buffer H). Avi-tagged CFTR NBD1 was purified as described.
For NBD1 binding, 100 nM of strep-tagged NBD1 in 100 µl of 150 mM NaCl, 50 mM Na2HPO4 pH 7.5, 1 mM ATP, and 40 µM DTT (buffer N), was bound to streptavidin plates for 1 hour at 4 °C with agitation. Plates were washed with PBST and incubated in buffer N at 30 °C in a water bath for 5 min. Then, plates were blocked in PBST containing 0.5% BSA, followed by the addition of HSC70 binding reactions, and detection as above.

For assay [2], the target named is T2, DJA2 (Homo sapiens, UniProt O60884).
T2 construct: made in house
The experiment in a line: Competition ELISA: soluble peptide vs DJA2 binding to immobilized 1097-L. The following applies: for DJA2 binding site by competition screen (in words): 1 μM DJA2, 100 μM soluble peptide, Fig. 3c/5, cutoff twice SD of 733-L, n ≥ 4; for competition of DJA2 binding to immobilized 1097-L (in words): 1 μM DJA2, soluble peptide up to 100 μM. The procedure:
as §1
(§2) The CFTR peptide library was designed as 15-mers with 10-residue overlaps covering the cytosolic sequences as in Fig. 1a and Supplemental Table S1. Synthetic peptides (Mimotopes, PepSet purity) contained an N-terminal biotin followed by linker sequence GSGS and the 15-mer sequence. […] Peptides were reconstituted in DMSO or water.
(§3) For peptide binding, streptavidin-coated black 96-well plates (Nunc Maxisorp, ThermoFisher) were pre-rinsed with PBS containing 0.05% Tween-20 (PBST), and 5 µM biotinylated peptides in 100 µl PBS were bound overnnight at 4 °C with agitation. Plates were washed with PBST and blocked with PBST containing 0.5% bovine serum albumin (BSA) for 1 h. After removal of blocking solution, 100 µl reactions containing chaperones at indicated concentrations were bound for 45 min at room temperature with agitation. HSC70 reactions were in buffer G containing 1 mM ATP, DJA1 and DJA2 reactions were in buffer H. For competition assays, chaperones and peptides were mixed at indicated concentrations immediately before the reactions were added to the plates. For detections, the plates were washed in PBST and 5 μM His-Probe-HRP conjugate (ThermoFisher) in 100 μL PBST added for 15 min with agitation. After washing in PBST, plates were developed using Amplex Red (ThermoFisher) according to manufacturer’s instructions, in a fluorescence plate reader (Tecan M1000).
(§4) Affinities were determined separately from binding curves and from competition curves. Data from binding of chaperones to immobilized peptides (Fig. 2a,b and Supplemental Fig. S2a–c) were fit to the equation 1/(1 − i) = (C/i)/Kd^B − b, where i is the relative saturation, C is the chaperone concentration (1 μM), Kd^B is the apparent dissociation constant from the binding data. In the plot of 1/(1 − i) against (C/i), the slope is 1/Kd^B, and −b is the intercept. […] In the plot of bi + (C/Kd^B)/i over D, the slope is 1/Kd^C, and e is the intercept. The amount of chaperone bound in the absence of competitor was set as i = 1.
(§5) Established statistical methods[71]–[73] were used to analyze the data for chaperone binding to the peptide library. First, biological and statistical outliers were identified with the Tukey method in two rounds, for biological and then statistical outliers. […] Binding data were represented as multiples of the standard deviations from the normal means. Binding in the presence of competitor peptides were shown as a fraction of binding in the absence of competitor, or the fraction competed calculated as 1 – fraction bound. Values were compared using a two-tailed unpaired Student’s t-test assuming unequal variance.
On the technique in general: An ELISA detects its analyte on a solid surface through an enzyme-linked reagent.

The subject of assay [3] is HSC70 and DJA2. The experiment in a line: Refolding of guanidine denatured luciferase by HSC70 and DJA2. Format: biochemical. The conditions noted are these: 4 μM each HSC70 and DJA2, 100 nM luciferase, 100 μM peptide (25-fold excess), 60 min, % of control without peptide; n = 3. The method, then:
Refolding of guanidine denatured luciferase with HSC70 and DJA2 was as described. […] To monitor refolding, luciferase activity was measured in a luminometer (Berthold Sirius) with the luciferase assay kit (Promega). For co-IPs, 20 μL reaction aliquots were stopped by dilution at 4 °C to 500 μL with buffer containing 0.1% Triton X-100, 0.2% BSA and 0.04 mg/mL apyrase (Sigma). Reactions were incubated with FLAG-M2 magnetic beads (Sigma) for 1 h at 4 °C with agitation, then beads were isolated and washed with buffer G containing 0.1% Triton X-100, and eluted with 40 μL of 1 μg/mL FLAG peptide in the same buffer. Samples were analyzed on Western blots detected with antibodies against luciferase (Sigma, L2164) and the FLAG-M2 tag (Sigma, F1804).

Assay [4] addresses T1, HSC70. The experiment in a line: Competition ELISA: soluble peptide vs HSC70 binding to immobilized 1097-L. The following applies: for HSC70 binding site by competition screen (in words): 1 μM HSC70, 100 μM soluble peptide, Fig. 3c/5, cutoff twice SD of 733-L, n ≥ 4; for competition of HSC70 binding to immobilized 1097-L (in words): 1 μM HSC70, soluble peptide up to 100 μM; for Kd: read-out: Kd from competition curves, HSC70. The method, then: as §1, §2, §3, §4, §5

Assay [5] addresses T3, DJA1 (Homo sapiens, UniProt P31689).
T3 construct: made in house
The experiment in a line: Competition ELISA: soluble peptide vs DJA1 binding to immobilized 1097-L. The conditions noted are these: for DJA1 binding site by competition screen (in words): 1 μM DJA1, 100 μM soluble peptide, Fig. 3c/5, cutoff twice SD of 733-L, n ≥ 4; for competition of DJA1 binding to immobilized 1097-L (in words): 1 μM DJA1, soluble peptide up to 100 μM. The method, then: as §1, §2, §3, §4, §5

Assay [6] deals with T1, HSC70. The experiment in a line: ELISA binding of HSC70 to immobilized biotinylated CFTR peptides. The method, then:
as §1, §2, §3, §4, §5

For assay [7], the target named is T3, DJA1. The experiment in a line: ELISA binding of DJA1 to immobilized biotinylated CFTR peptides. The method, then:
as §1, §2, §3, §4, §5

For assay [8], the target named is T2, DJA2. The experiment in a line: ELISA binding of DJA2 to immobilized biotinylated CFTR peptides. The procedure:
as §1, §2, §3, §4, §5

Entries after “also recorded” stand apart in the source; their conditions may differ. Ends that are not written are not given here. Peptide text beside a SMILES is read from it.

T2 sequence (O60884 whole entry): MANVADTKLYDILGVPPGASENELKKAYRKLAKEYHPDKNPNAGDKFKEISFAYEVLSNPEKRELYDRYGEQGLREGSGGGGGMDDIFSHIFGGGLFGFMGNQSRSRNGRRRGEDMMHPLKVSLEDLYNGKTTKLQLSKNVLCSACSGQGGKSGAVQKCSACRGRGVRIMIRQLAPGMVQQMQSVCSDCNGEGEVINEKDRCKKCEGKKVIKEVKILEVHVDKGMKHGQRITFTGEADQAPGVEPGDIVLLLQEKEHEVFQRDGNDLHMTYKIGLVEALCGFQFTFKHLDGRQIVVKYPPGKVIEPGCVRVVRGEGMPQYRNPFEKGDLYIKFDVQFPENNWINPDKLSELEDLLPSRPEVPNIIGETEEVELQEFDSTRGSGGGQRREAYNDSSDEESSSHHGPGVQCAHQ
T1 sequence (P11142 whole entry): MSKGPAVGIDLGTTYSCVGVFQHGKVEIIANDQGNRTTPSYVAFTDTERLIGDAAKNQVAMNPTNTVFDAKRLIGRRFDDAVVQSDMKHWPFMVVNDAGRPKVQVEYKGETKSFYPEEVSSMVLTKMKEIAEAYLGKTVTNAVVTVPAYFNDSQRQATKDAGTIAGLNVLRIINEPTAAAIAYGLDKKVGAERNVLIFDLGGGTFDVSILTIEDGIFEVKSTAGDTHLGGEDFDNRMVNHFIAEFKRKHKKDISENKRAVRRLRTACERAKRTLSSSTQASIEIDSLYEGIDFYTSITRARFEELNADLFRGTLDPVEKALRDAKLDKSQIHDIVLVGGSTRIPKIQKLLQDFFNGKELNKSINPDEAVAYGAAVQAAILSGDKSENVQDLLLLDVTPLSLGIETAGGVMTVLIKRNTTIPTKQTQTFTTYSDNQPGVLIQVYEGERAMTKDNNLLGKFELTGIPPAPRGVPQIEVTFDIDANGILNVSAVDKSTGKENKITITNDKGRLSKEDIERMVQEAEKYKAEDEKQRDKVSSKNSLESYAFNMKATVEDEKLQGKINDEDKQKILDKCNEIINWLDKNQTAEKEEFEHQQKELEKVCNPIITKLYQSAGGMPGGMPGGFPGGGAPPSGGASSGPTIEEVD
T3 sequence (P31689 whole entry): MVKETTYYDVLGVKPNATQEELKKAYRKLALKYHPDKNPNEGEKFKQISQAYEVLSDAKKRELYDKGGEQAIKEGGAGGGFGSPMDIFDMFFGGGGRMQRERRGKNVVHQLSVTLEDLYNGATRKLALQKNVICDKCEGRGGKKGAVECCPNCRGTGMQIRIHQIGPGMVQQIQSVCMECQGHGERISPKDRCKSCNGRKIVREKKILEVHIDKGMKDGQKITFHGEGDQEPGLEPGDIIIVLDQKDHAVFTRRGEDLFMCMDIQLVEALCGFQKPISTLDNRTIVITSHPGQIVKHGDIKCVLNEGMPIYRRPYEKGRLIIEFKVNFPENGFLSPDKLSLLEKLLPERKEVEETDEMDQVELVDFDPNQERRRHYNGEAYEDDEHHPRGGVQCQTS

Take TSLLMVIMG [Peptide 469-S]: in assay [1], the “competition of HSC70 binding to immobilized NBD1 (in words)” value was “competed the majority of HSC70”. In assay [2], the “DJA2 binding site by competition screen (in words)” value (from here on “DJA2 binding site”) was “HSC70-DJA2 sites” and the “competition of DJA2 binding to immobilized 1097-L (in words)” value (from here on “competition of DJA2 binding”) is “competed”. Also, in assay [3], the “effect on luciferase refolding (in words)” value was “inhibited refolding”. Further, in assay [4], the “HSC70 binding site by competition screen (in words)” value (from here on “HSC70 binding site”) is recorded as “HSC70-DJA2 sites” and the “competition of HSC70 binding to immobilized 1097-L (in words)” value was “competed HSC70 well”.
Take DKILILHEG [Peptide 618-S]: the “competition of HSC70 binding to immobilized NBD1 (in words)” value in assay [1] was “competed the majority of HSC70”. In addition, in assay [2], the “DJA2 binding site” value is “bound by HSC70, DJA2 and DJA1”. Further, the “effect on luciferase refolding (in words)” value in assay [3] is reported as “partial but still significant”. Also, in assay [4], the “HSC70 binding site” value is “bound by HSC70, DJA2 and DJA1”; the “competition of HSC70 binding to immobilized 1097-L (in words)” value was “competed HSC70 well”. The “DJA1 binding site by competition screen (in words)” value in assay [5] is “bound by HSC70, DJA2 and DJA1”.
On to QKVFIFSGTF [Peptide 1295-S], for which the “competition of HSC70 binding to immobilized NBD1 (in words)” value in assay [1] is reported as “effective competitors”. The “DJA2 binding site” value in assay [2] was “HSC70-DJA2 sites”. Further, the “effect on luciferase refolding (in words)” value in assay [3] is on record as “partial but still significant”. Also, in assay [4], the “HSC70 binding site” value is given as “HSC70-DJA2 sites”, the “competition of HSC70 binding to immobilized 1097-L (in words)” value is recorded as “competed” and the Kd was 1260 nM.
With `CC[C@H](C)[C@H](NC(=O)[C@@H](NC(=O)[C@@H](NC(=O)[C@H](CS)NC(=O)[C@@H](N)CC(=O)O)[C@@H](C)O)C(C)C)C(=O)N[C@@H](CC(C)C)C(=O)N[C@@H](CS)C(=O)N[C@@H](CCC(=O)O)C(=O)N[C@@H](Cc1c[nH]cn1)C(=O)O` [Peptide 1398-S] (H-DCTVILCEH-OH; N-terminus and C-terminus assumed), in assay [1], the “competition of HSC70 binding to immobilized NBD1 (in words)” value is listed as “effective competitors”. For the same molecule, in assay [2], the “DJA2 binding site” value was “bound by HSC70, DJA2 and DJA1”; the “competition of DJA2 binding” value is recorded as “competed”. The “effect on luciferase refolding (in words)” value in assay [3] is on record as “inhibited refolding”. In assay [4], the “HSC70 binding site” value was “bound by HSC70, DJA2 and DJA1”; the “competition of HSC70 binding to immobilized 1097-L (in words)” value is “competed”. Moreover, in assay [5], the “DJA1 binding site by competition screen (in words)” value was “bound by HSC70, DJA2 and DJA1”; the “competition of DJA1 binding to immobilized 1097-L (in words)” value was “competed”.
Regarding FLYLSTLRWFQMRIE [Peptide 1097-L], in assay [6] (1 μM HSC70, immobilized 1097-L, Fig. S1a, n ≥ 4), the “HSC70 binding in ATP compared with ADP or no nucleotide” value is given as “somewhat lower than in ADP or the absence of nucleotide”. The “binding in peptide library screen, HSC70 (in words)” value in assay [6] (2 μM HSC70, with ATP, immobilized 15-mer, n ≥ 3) is listed as “most consistently bound by all three chaperones”. Besides, the “titration binding / saturation, HSC70 (in words)” value in assay [6] (HSC70 titrated to 1.5 μM on immobilized peptide, Fig. 2a, S2a, n ≥ 6) is “higher than to the other peptides”. In addition, the Kd in assay [6] (immobilized peptide (biotin-GSGS-15-mer), HSC70 titrated in buffer G pH 7.5 + 1 mM ATP, 45 min, room temperature, n ≥ 6, read-out: Kd from binding curves, HSC70) worked out at 58 nM; in assay [2] (read-out: Kd from competition curves, DJA2), 585 nM; in assay [7] (immobilized peptide (biotin-GSGS-15-mer), DJA1 titrated in buffer H pH 7.5, no nucleotide, 45 min, room temperature, n = 3, read-out: Kd from binding curves, DJA1), 167 nM; in assay [4], 602 nM; in assay [8] (immobilized peptide (biotin-GSGS-15-mer), DJA2 titrated in buffer H pH 7.5, no nucleotide, 45 min, room temperature, n = 3, read-out: Kd from binding curves, DJA2) it was 75 nM; in assay [5] (read-out: Kd from competition curves, DJA1) it was 2430 nM. In addition, the “HSC70 concentration at which binding reached saturation” value in assay [6] (titration on immobilized peptide, Fig. 2a, n ≥ 6) was “around 1 μM”. Moreover, in assay [2], the “competition of DJA2 binding” value is on record as “similarly competed”. The “effect on luciferase refolding (in words)” value in assay [3] was “blocked refolding entirely”. Moreover, in assay [7] (2 μM DJA1, absence of ATP, immobilized 15-mer, n ≥ 3), the “binding in peptide library screen, DJA1 (in words)” value is listed as “most consistently bound by all three chaperones”. In addition, the “titration binding / saturation, DJA1 (in words)” value in assay [7] (DJA1 titrated to 1.5 μM on immobilized peptide, Fig. 2b, S2b, n = 3) was “at or close to saturation above 1 μM; also recorded: higher than to the other peptides”. Further, the “competition of HSC70 binding to immobilized 1097-L (in words)” value in assay [4] is “Strong, essentially saturating competition”. In addition, the “binding in peptide library screen, DJA2 (in words)” value in assay [8] (2 μM DJA2, absence of ATP, immobilized 15-mer, n ≥ 3) is reported as “most consistently bound by all three chaperones”. Further, in assay [8] (DJA2 titrated to 1.5 μM on immobilized peptide, Fig. 2b, S2c, n = 3), the “titration binding / saturation, DJA2 (in words)” value is “at or close to saturation above 1 μM; also recorded: higher than to the other peptides”. In assay [5], the “competition of DJA1 binding to immobilized 1097-L (in words)” value is “similarly competed”.
